# Calls of active or inactive are those of the source. No cut-off for these calls is given here.
# Experiments:
# Hepacivirus hominis = assay: Inhibition of HCV recombinant NS3 helicase at 100 uM
# [1] = Inhibition of HCV recombinant NS3 helicase; set-up: species or system Hepacivirus hominis
# Hepatitis C virus = assay: Antiviral activity against HCV in human Huh5-2 cells assessed as inhibition of HCV subgenomic replication; type: functional, organism-based, Hepacivirus hominis; conditions: Huh-5-2
# [2] = Cytotoxicity against human Huh5-2 cells by MTS assay; type: cell-based, Huh-5-2
Activity (Hepacivirus hominis),IC50 [1] [nM],EC50 (Hepatitis C virus) [µg/mL],SMILES,CC50 [2] [µg/mL]
inactive,–,–,COC(=O)c1ccc(CNC(=O)c2cc(/C=C/C(C)=O)c[nH]2)cc1,–
–,260,3,COC(=O)c1ccc(CNC(=O)c2ccc(/C=C/C(C)=O)[nH]2)cc1,10

# Reference: ChEMBL document CHEMBL1136909, “Discovery of a novel HCV helicase inhibitor by a de novo drug design approach” (Bioorg Med Chem Lett, 2009)
